# Assay results as given in PubChem BioAssay AID1918994 (Molecular Pharmacology Branch, DTP, NCI, 2023).
# Tested on: 292921-168-R-J2-PDC complex spheroid growth
# Experiment: Anticancer human tumor 292921-168-R-J2-PDC patient-derived pancreatic carcinoma cell line growth inhibition [AhR]
# Conditions: for IC50: curve of first compound; for viability, T/C: stronger effect = lower value
# In short: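 Complex tumor spheroids co-cultured with HUVEC and human MSC stroma; AhR antagonists tested in combination with standard-of-care and investigational agents. Top concentration at or near clinical Cmax (else 10 microM), half-log dilutions; growth expressed as percent test/control.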
# [1] = second compound 0.1 µM, first compound 0.0316 µM
# [2] = second compound 0.1 µM, first compound 0.1 µM
# [3] = second compound 0.1 µM, first compound 0.316 µM
# [4] = second compound 0.1 µM, first compound 1 µM
# [5] = second compound 0.1 µM, first compound 3.16 µM
# [6] = second compound 0.1 µM, first compound 10 µM
# [7] = second compound 0.316 µM, first compound 0.0316 µM
# [8] = second compound 0.316 µM, first compound 0.1 µM
# [9] = second compound 0.316 µM, first compound 0.316 µM
# [10] = second compound 0.316 µM, first compound 1 µM
# [11] = second compound 0.316 µM, first compound 3.16 µM
# [12] = second compound 0.316 µM, first compound 10 µM
# [13] = second compound 1 µM, first compound 0.0316 µM
# [14] = second compound 1 µM, first compound 0.1 µM
# [15] = second compound 1 µM, first compound 0.316 µM
# [16] = second compound 1 µM, first compound 1 µM
# [17] = second compound 1 µM, first compound 3.16 µM
# [18] = second compound 1 µM, first compound 10 µM
# [19] = second compound 3.16 µM, first compound 0.0316 µM
# [20] = second compound 3.16 µM, first compound 0.1 µM
# [21] = second compound 3.16 µM, first compound 0.316 µM
# [22] = second compound 3.16 µM, first compound 1 µM
# [23] = second compound 3.16 µM, first compound 3.16 µM
# [24] = second compound 3.16 µM, first compound 10 µM
# [25] = second compound 10 µM, first compound 0.0316 µM
# [26] = second compound 10 µM, first compound 0.1 µM
# [27] = second compound 10 µM, first compound 0.316 µM
# [28] = second compound 10 µM, first compound 1 µM
# [29] = second compound 10 µM, first compound 3.16 µM
# [30] = second compound 10 µM, first compound 10 µM
# 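Note: spheroids exposed to compounds for seven days after three days of growth.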
IC50 (second compound 0.1 µM) [nM],IC50 (second compound 0.316 µM) [nM],IC50 (second compound 1 µM) [nM],IC50 (second compound 3.16 µM) [nM],IC50 (second compound 10 µM) [nM],Structure (SMILES),"viability, T/C [1] [%]","viability, T/C [2] [%]","viability, T/C [3] [%]","viability, T/C [4] [%]","viability, T/C [7] [%]","viability, T/C [8] [%]","viability, T/C [9] [%]","viability, T/C [10] [%]","viability, T/C [13] [%]","viability, T/C [14] [%]","viability, T/C [15] [%]","viability, T/C [16] [%]","viability, T/C [19] [%]","viability, T/C [20] [%]","viability, T/C [21] [%]",further results
< 31.6,< 31.6,< 31.6,< 31.6,< 31.6,COc1cccc2c1C(=O)c1c(O)c3c(c(O)c1C2=O)CC(O)(C(=O)CO)CC3OC1CC(N)C(O)C(C)O1 (stereo not given) + Cc1ccccc1N=Nc1ccc(NC(=O)c2ccnn2C)c(C)c1,24.3,17,5.13,0.17,20.1,15.5,4.33,0.12,23.3,16.1,2.12,3.61,19,13.9,1.59,"viability, T/C [5]: 0.69%; viability, T/C [6]: 1.91%; viability, T/C [11]: 0.59%; viability, T/C [12]: 2.35%; viability, T/C [17]: 0.65%; viability, T/C [18]: 5.48%; viability, T/C [22]: 5.2%; viability, T/C [23]: 0.73%; viability, T/C [24]: 1.88%; viability, T/C [25]: 17.2%; viability, T/C [26]: 12.1%; viability, T/C [27]: 0.42%; viability, T/C [28]: 0.36%; viability, T/C [29]: 1.18%; viability, T/C [30]: 4.37%"
< 31.6,< 31.6,< 31.6,< 31.6,< 31.6,Nc1ccn(C2OC(CO)C(O)C2(F)F)c(=O)n1 (stereo not given) + Cc1ccccc1N=Nc1ccc(NC(=O)c2ccnn2C)c(C)c1,8.08,7.37,8.63,7.79,8.99,7.65,8.65,8.07,8.29,8.55,9.53,8.8,8.95,7.07,7.3,"viability, T/C [5]: 8.32%; viability, T/C [6]: 6.76%; viability, T/C [11]: 8.01%; viability, T/C [12]: 7.23%; viability, T/C [17]: 11.7%; viability, T/C [18]: 7.88%; viability, T/C [22]: 10.1%; viability, T/C [23]: 8.53%; viability, T/C [24]: 5.4%; viability, T/C [25]: 8.79%; viability, T/C [26]: 9.42%; viability, T/C [27]: 7.46%; viability, T/C [28]: 10.9%; viability, T/C [29]: 9.28%; viability, T/C [30]: 6.09%"
> 1000,> 1000,> 1000,> 1000,> 1000,Nc1ncn(C2CC(O)C(CO)O2)c(=O)n1 (stereo not given) + Cc1ccccc1N=Nc1ccc(NC(=O)c2ccnn2C)c(C)c1,101,86,73.5,72.9,87,76.5,76,78.6,84.2,79.6,77.2,72.4,66.3,72.2,63,"viability, T/C (second compound 0.1 µM, first compound 0.00316 µM): 90.2%; viability, T/C (second compound 0.1 µM, first compound 0.01 µM): 94.2%; viability, T/C (second compound 0.316 µM, first compound 0.00316 µM): 96.9%; viability, T/C (second compound 0.316 µM, first compound 0.01 µM): 86.9%; viability, T/C (second compound 1 µM, first compound 0.00316 µM): 80.1%; viability, T/C (second compound 1 µM, first compound 0.01 µM): 104%; viability, T/C (second compound 3.16 µM, first compound 0.00316 µM): 80.2%; viability, T/C (second compound 3.16 µM, first compound 0.01 µM): 82.7%; viability, T/C [22]: 55.6%; viability, T/C (second compound 10 µM, first compound 0.00316 µM): 63%; viability, T/C (second compound 10 µM, first compound 0.01 µM): 65.3%; viability, T/C [25]: 58.7%; viability, T/C [26]: 61.6%; viability, T/C [27]: 62.8%; viability, T/C [28]: 45%"
